{"source": "patent US7462592B2", "about": "“Compositions and methods for polynucleotide delivery” (Novartis Vaccines and Diagnostics, Inc., priority 1996, dated 2008)", "key": {"HT1080 and 293 cells": {"tested_on": "HT1080 and 293 cells", "test": "Effect of chloroquine on transfection (FIG. 9)", "format": "cell-based, human", "conditions": "presence or absence of chloroquine", "procedure": "FIG. 9 illustrates the effect of chloroquine on transfection with RZ145-1 in (A) 293 cells and (B) HT1080 cells. The cells were transfected in the presence (black bar) or absence (stippled bar) of 100 uM chloroquine. Cells were lysed 48 hours post transfection and luciferase activity and total protein content were measured.\nTo determine whether chloroquine affected transfection mediated by polycationic agents of the present invention, HT1080 and 293 cells were transfected using RZ145-1 in the presence and absence of chloroquine. As a control, the same cell lines were transfected with polylysine both in the presence and absence of chloroquine. […] In contrast, polylysine-mediated transfection in the absence of chloroquine was 100-fold lower than polylysine mediated transfection in the presence of chloroquine."}, "[1]": {"conditions": "Coulter N4MD submicron analyzer; Lee et al., 1996; cited from earlier work"}}, "data": [{"substance": "polylysine [reference compound]", "values": [{"measurement": "transfection in the absence of chloroquine relative to presence of chloroquine, fold lower", "setting": "HT1080 and 293 cells", "value": 100, "unit": "fold"}, {"measurement": "mean diameter of particles of condensed polynucleotide", "setting": "[1]", "value": "50-200 nm"}]}]}
